According to patent US20120020876A1, “HEDGEHOG PATHWAY INHIBITORS” (priority 2009, published 2012):
“Also recorded” adds a separate entry of the source.

Tests used:
Assay type in all cases: in vivo, mouse
KPC tumor blood vessels = test: Vessel patency: lectin perfusion with CD31 staining in KPC tumors; settings: KPC mice treated 10 days; vs untreated or gemcitabine tumors
Method: To assess the functional vasculature, biotin-conjugated Lycopersicon esculentum lectin (B1175-1 mg, Vector Laboratories) was resuspended in 425 μL PBS and mixed with 75 μL of 1 mg/mL Streptavidin-AlexaFluor 633 (S21375, Molecular Probes) (in sterile PBS). Prior to use, the lectin-avidin mixture was centrifuged 14,000 k on a microfuge for 10 minutes to remove any particulate. Fifteen minutes prior to euthanasia, 100 μl (0.4 mg total) of the conjugated lectin was administered as a slow intravenous infusion over 5 minutes, and the hemodynamics monitored closely to ensure that it was tolerated. For doxorubicin experiments, five minutes prior to euthanasia mice were also infused with a 20 mg/kg doxorubicin solution (D-1515.10 mg, in sterile saline, Sigma) over one minute.
While under terminal anesthesia, mice were perfused with 4% paraformaldehyde in PBS, pH 7.4. Perfused tissues were harvested, fixed overnight in 4% paraformaldehyde in PBS, pH 7.4 and transferred to 70% ethanol. Tissues were embedded in paraffin, sectioned, rehydrated, and counterstained with DAPI. The lectin labeling experiments were reproduced independently in a second laboratory (SRH, KI).
Mice were infused with 30 ml of 4% PFA pH 7.4 using a Harvard Apparatus PhD 2000 syringe pump at a rate of […]. […] Doxorubicin fluorescence was excited with a 488 nm laser, and emission was detected in a range from 520-620 nm. […]

KPC tumors = test: Proliferation of KPC tumors (phospho-histone H3 immunohistochemistry); settings: 4 days or 8-12 days of treatment
Method: Tissues were fixed in 10% formalin solution for 24 hours and transferred to 70% ethanol. Tissues were paraffin embedded, sectioned and rehydrated. For CD31 IHC, sections were unmasked in 10 mM EDTA, pH 8.0 in a pressure cooker. For all other antibodies, sections were unmasked in 10 mM citric acid in a pressure cooker. Endogenous peroxidases were quenched in 3% H2O2/PBS for 20 minutes. Remaining steps were carried out with Vectastain ABC kits appropriate to the species of primary antibody (Vector Labs, Burlingame, Calif.) with the following modification: blocking serum was supplemented with Protein Blocking Agent (Immunotech/BeckmanCoulter, Fullerton, Calif.) diluted 1:50. Antigens were developed with DAB Peroxidase Substrate (Vector Labs). The following antibody dilutions were used: Phospho-Histone H3, 1:100 (#9701, Cell Signaling Technology); Cleaved Caspase 3, 1:100 (#9661, Cell Signaling Technology); CD31, 1:75 (SC-1506). Slides were counterstained with hematoxylin.

KPC pancreatic tumors = test: Monitoring of KPC pancreatic tumor volume by 3D high resolution ultrasonography; settings: gemcitabine 100 mg/kg twice weekly, Compound A 40 ug/kg/day, or both
From the text: For survival studies, mice were enrolled following the detection of 5-10 mm diameter tumor by ultrasound. Tumors were quantified by 3D ultrasound twice weekly until endpoint. High resolution ultrasound (US) imaging of normal and diseased mouse pancreas using the Vevo 770 System with a 35 MHz RMV scanhead (Visual Sonics, Inc.). 3D images were produced using the 3D motor arm to collect serial images at 0.25 mm intervals through the thickness of the tumor. Tumors were outlined on each 2D image and reconstructed to quantify the 3D volume using the integrated Vevo 770 software package.

[1] = Compound A concentration in tissues by LC/MS; settings: KPC mice; oral administration 40 mg/kg; 6 h after final dose
Method: KPC mice harboring pancreatic tumors were treated with 40 mg/kg of Compound A by oral gavage, either singly, once daily for four days or at as part of a survival study. […] Six hours following the final dose, tissue samples were harvested, snap frozen in liquid nitrogen and stored at −80° C. Mice with abdominal ascites were excluded from analysis. Samples were analyzed by LC/MS, as described below.
Calibration standard stock solutions were prepared by dissolving Compound A at a concentration of 2.5 mg/mL in DMSO. Internal standard stock solution was prepared by dissolving deuterated Compound A (Compound A-d^3) in DMSO for a final concentration of 2.5 mg/mL. Stock solutions were stored in aliquots at −80° C. until further use. […]
Tumor samples were homogenized in 4 volumes of ACN:PBS buffer. […] Compound A concentrations for all tissues were preferentially determined using the 1:1 dilution unless any of the replicates for a given tissue required the higher dilution of 1/100 for accurate quantitation.
Compound A concentrations in the samples were determined from the calibration curves generated in homogenization buffer. […]
The data were acquired and processed using the software Analyst 1.4.1 (Applied Biosystems, Foster City, Calif.). For the standard curve samples, peak area ratios of Compound A to internal standard […] were calculated and plotted against the theoretical concentrations. […]

## CC1=C2C[C@H]3[C@@H](CC[C@@H]4C[C@H](NS(C)(=O)=O)CC[C@@]43C)[C@@H]2CC[C@@]2(C1)O[C@@H]1C[C@H](C)CN[C@H]1[C@H]2C.Cl [Compound A]
KPC tumor blood vessels
  vessel patency (percent of CD31 positive vessels perfused with lectin): increased vessel patency
KPC tumors
  proliferation of KPC tumors: little appreciable effect; also recorded: unchanged
KPC pancreatic tumors
  objective (ultrasonographic) response, responding mice/treated mice: 2/10
[1]
  accumulation of drug in PDA tissues: measurable accumulation of drug in PDA tissues
